Counter-ions that a name gives are not always drawn. Like-named read-outs stand apart in the source and are kept apart here.
Legend:
ORL1 receptor [1] = molecular target: T1, ORL1 receptor (Homo sapiens, UniProt P41146); assay: Receptor binding assay with 3H-nociceptin/orphanin FQ using membranes of recombinant CHO-ORL1 cells; parameters: expressed in transfected cells; host or cells: recombinant CHO-ORL1 cells (membranes)
Experimental: Furthermore a receptor binding assay with ^3H-nociceptin/ orphanin FQ was carried out with the compounds according to the invention using membranes of recombinant CHO-ORL1 cells. This test system was implemented according to the method proposed by Ardati et al. (Mol. Pharmacol., 51, 1997, pp. 816-824). The concentration of ^3H-N/OFQ in these experiments was 0.5 nM. The binding assays were performed in each case with 20 μg of membrane protein per 200 μl of batch in 50 mM of Hepes, pH 7.4, 10 mM MgCl2 and 1 mM EDTA. The binding to the ORL1 receptor was determined using in each case 1 mg of WGA-SPA beads (Amersham-Pharmacia, Freiburg) by incubating the batch for one hour at room temperature followed by measurement in a Trilux scintillation counter (Wallac, Finland). The affinity is given as the Ki value.

ORL1 receptor [2] = molecular target: T1, ORL1 receptor; assay: ORL1 reporter gene assay, agonist test (inhibition of cAMP-dependent luciferase formation); format: cell-based; parameters: A cDNA coding for the ORL1 receptor was cloned using standard methods from THP-1 cells; expressed in transfected cells; host or cells: CHO-K1/pSE66/K9/pZeoORL17/K21; details: agonist potency: concentration at semi-maximum inhibition of luciferase formation; CHO-K1 cells expressing human ORL1
Description: (§1) The morphinan derivatives of the general formula I according to the invention were identified with a reporter gene system as ORL1 receptor agonists or as ORL1 receptor antagonists. This reporter gene system is based on the expression of the human ORL1 receptor in CHO-K1 cells, which carry a cAMP-sensitive luciferase gene (Wnendt et al., Regulatory Peptides, 80, 1999, p. 127 the entire disclosure of which is incorporated herein by reference). The formation of cAMP is induced by forskolin, an adenylate cyclase activator.
Also, they inhibit in a concentration-dependent manner luciferase formation due to the binding to the ORL1 receptor. The potency, expressed as the IC50 value, indicates the concentration at which the semi-maximum effect of the agonist is reached.
(§2) The reporter gene system was constructed as follows:
A cDNA coding for the ORL1 receptor was cloned using standard methods from THP-1 cells (European Cell Culture Collection, Porton Down, Great Britain) of a human monocyte cell line and integrated into the plasmid pZeoSV (Invitrogen, Leek, Netherlands). This plasmid, pZeoORL17, was used for the transfection of a cell line, CHO-K1/pSE66/K9, that contains the cAMP reporter plasmid pSE66. […]

ORL1 receptor [3] = molecular target: T1, ORL1 receptor; assay: ORL1 reporter gene assay, antagonist test (cAMP-sensitive luciferase, forskolin-induced, in presence of 10 nM nociceptin/orphanin FQ); format: cell-based; parameters: A cDNA coding for the ORL1 receptor was cloned using standard methods from THP-1 cells; expressed in transfected cells; host or cells: CHO-K1/pSE66/K9/pZeoORL17/K21
Description: as §1
The inhibition of luciferase formation due to the agonists is lifted to the extent that the antagonist binds to the ORL1 receptor. […] The effect of the antagonists is described by the pKB value.
as §2
A cDNA coding for the ORL1 receptor was cloned using standard methods from THP-1 cells (European Cell Culture Collection, Porton Down, Great Britain) of a human monocyte cell line and integrated into the plasmid pZeoSV (Invitrogen, Leek, Netherlands). This plasmid, pZeoORL17, was used for the transfection of a cell line, CHO-K1/pSE66/K9, that contains the cAMP reporter plasmid pSE66. The plasmid pSE66 was constructed on the basis of the plasmid pMAMneo-LUC (Clontech, Palo Alto, Calif.) by replacing the RSV promoter of this plasmid by a promoter region in which six CRE elements (cAMP-responsive elements, Comb et al., Nature, 323, 1986, pp. 353-356; Montminy et al., Proc. Natl. Acad. Sci. USA, 83, 1986, pp. 6682-6686; Short et al., J. Biol. Chem., 261, 1986, pp. 9721-9726) lie upstream of a promoter. The SV40 promoter derives from the plasmid pGL2-promoter (Promega, Madison, Wis.). The promoter region constructed in this way controls in the plasmid pSE66 the expression of the luciferase gene from pMAMneo-LUC. Furthermore, pSE66 carries a G418 resistance gene under the control of a further SV40 promoter. The cell line CHO-K1 (European Cell Culture Collection, Porton Down, Great Britain) was rendered stable with pSE66 and the clone CHO-K1/pSE66/K9 was selected for the transfection with pZeoORL17. […]

[4] = 0.5 nM 3H-N/OFQ, CHO-ORL1 membranes, WGA-SPA beads, one hour at room temperature, read-out: Ki (nM) ORL1 Binding Assay
[5] = read-out: PKB ORL1 Reporter Gene Assay (converted)

T1 sequence (P41146 whole entry): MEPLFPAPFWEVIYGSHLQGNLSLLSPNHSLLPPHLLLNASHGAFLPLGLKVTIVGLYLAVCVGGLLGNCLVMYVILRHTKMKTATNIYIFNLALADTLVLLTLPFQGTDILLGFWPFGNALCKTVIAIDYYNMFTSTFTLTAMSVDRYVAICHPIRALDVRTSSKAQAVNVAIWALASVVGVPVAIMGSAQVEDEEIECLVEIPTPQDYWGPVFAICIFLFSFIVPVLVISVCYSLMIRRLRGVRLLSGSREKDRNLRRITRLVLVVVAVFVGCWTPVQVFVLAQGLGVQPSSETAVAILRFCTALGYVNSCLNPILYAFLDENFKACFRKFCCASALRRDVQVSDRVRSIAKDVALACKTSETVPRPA

| Molecule | Ki (ORL1 receptor [1]; [4]) [nM] | IC50 (ORL1 receptor [2]) [nM] | Ki (ORL1 receptor [1]) [nM] | Kb (ORL1 receptor [3]) [nM] | Kb (ORL1 receptor [3]; [5]) [nM] |
| --- | --- | --- | --- | --- | --- |
| 17-cyclopropylmethyl-6,7-didehydro-4,5α-epoxy-3-hydroxy-14-(methoxynaphthalene)1′-(β-methylnaphthalene)indolo-[6,7:2,′3′]-morphinan hydrochloride [Example 4] | 982 | 31.2 | – | – | – |
| 17-cyclopropylmethyl-6,7-didehydro-4,5α-epoxy-14-hydroxy-3-benzyloxy-1′-(p-methoxycarbonylmethylphenyl)-indolo-[6,7:2,′3′]-morphinan hydrochloride [Example 5] | – | 25.8 | – | – | – |
| C=CCN1CCC23c4c5ccc(O)c4OC2c2c(c4ccccc4n2Cc2ccccc2Cl)CC3(O)C1C5 (stereo not drawn) [Example 1, 17-allyl-6,7-didehydro-4,5α-epoxy-3,14-dihydroxy-1′-(o-chlorobenzyl)indolo-[6,7:2,′3′]-morphinan hydrochloride] | – | – | 449 | 42.7 | – |
| C=CCN1CCC23c4c5ccc(O)c4OC2c2c(c4ccccc4n2Cc2cccc(Cl)c2)CC3(OCc2cccc(Cl)c2)C1C5 (stereo not drawn) [Example 2, 17-allyl-6,7-didehydro-4,5α-epoxy-3-hydroxy-14-(m-chloromethoxyphenyl)1′-(m-chlorobenzyl)indolo[6,7:2,′3′]-morphinan hydrochloride] | 1080 | – | – | – | 102 |
| Oc1ccc2c3c1OC1c4c(c5ccccc5n4Cc4ccccc4Cl)CC4(OCc5ccccc5Cl)C(C2)N(CC2CC2)CCC314 (stereo not drawn) [Example 3, 17-cyclopropylmethyl-6,7-didehydro-4,5α-epoxy-3-hydroxy-14-(o-chloromethoxyphenyl)1′-(o-chlorobenzyl)-indolo[6,7:2,′3′]-morphinan hydrochloride] | 718 | – | – | – | 407 |

Reference: patent publication US6476044B1, “Use of morphine derivatives as medicaments for the treatment of neuropathic problems” (Gruenenthal GmbH, priority 2000, dated 2002)
